{
  "source": "paper PMC5947712",
  "about": "“High‐Throughput Kinetic Analysis for Target‐Directed Covalent Ligand Discovery” (Angewandte Chemie (International Ed. in English), 2018)",
  "key": {"[1]": {"assay": "qIT (quantitative irreversible tethering) thiol consumption assay with glutathione", "settings": "compound 0.5 mM, glutathione 5 μM, TCEP-agarose 2 % w/v", "method": "To measure the kinetics of electrophile‐thiol conjugation we developed quantitative irreversible tethering (qIT), a technique which employs fluorogenic thiol quantification (FTQ) in a high‐throughput thiol consumption assay (Figure 1 a). […] We solved this problem using an immobilized reducing agent (TCEP‐agarose, 2 % w/v), allowing facile separation by centrifugation before conducting the FTQ step (Figure 1 b).\nThe target thiol (5 μM) is reacted with electrophilic fragments (0.5 mM) under pseudo‐first‐order conditions in the presence of TCEP‐agarose (2 % w/v). Reaction progress is followed by discrete measurements of residual target thiol concentration using the fluorogenic probe CPM and rate constants are derived from exponential regression analysis. b) TCEP‐agarose prevents aerobic thiol oxidation. Glutathione solutions were stored ±TCEP‐agarose (2 % w/v).\nElectrophiles were individually reacted with glutathione under pseudo‐first‐order conditions in the presence of TCEP‐agarose. […] Fluorescence measurements were normalized against a DMSO control and exponential regressions used to determine rate constants.\nReactionBplate\" setup:!Each! well! of! a! 96Rwell! PCR! plate! was! charged! with! 60–100! µL! of! target! thiol! (GSH! or! protein,! 10! µM)!\nand! 4%! w/v! TCEPRagarose! beads! in! 100! mM! phosphate! buffer! (pH! 7.5! or! 8)! and! cooled! to! 4! ˚C.! Reactions! were! started! by!\naddition! of! an! equal! volume! of! preRcooled! electrophile! solution! (1! mM,! 2%! DMSO)! in! 0.1! M! phosphate! buffer! (final! concentraR\ntion:! thiol! =! 5! µM,! electrophile! =! 0.5! mM,! 2%! w/v! TCEPRagarose! beads),! with! a! minimum! of! 4! wells! per! plate! used! as!\nDMSO/thiol! only! controls.! After! mixing,! TCEPRagarose! was! pelleted! by! centrifugation! (1,300! rpm,! 1! min)! and! the! plate! incuR\nbated!at!4!˚C.,CPM\"Quench:! At! a! series! of! time! points!"}, "[2]": {"target": "T1, Cdk2 (Homo sapiens, UniProt P24941)", "T1 construct": "endogenous in cells; host or cells: HeLa", "assay": "In-cell target engagement: CuAAC biotin tagging, Neutravidin pulldown, anti-Cdk2 western blot", "assay_type": "cell-based", "settings": "HeLa cells, 6 hours treatment", "protocol": "(§1) To evaluate whether this in vitro activity would translate into in‐cell target engagement, acrylamide 3 (REFCdk2(WT)=5.6, k GSH=0.033 h^−1, k Cdk2(WT)=0.185 h^−1) was synthesized as a target engagement probe, containing an alkyne handle for bio‐orthogonal ligation. HeLa cells were treated with probe 3 and protein lysates subjected to copper(I) catalyzed azide–alkyne cycloaddition (CuAAC)30 to affect biotin conjugation.\n(§2) Figure 7 HeLa cells were treated with 3 for 6 hours. After tagging with biotin‐azide, Neutavidin pulldown was performed. Western blot analysis (anti‐Cdk2 and Cdk1) was performed before (Lysate) and after pulldown (PD).\n(§3) 100Rfold! dilution! gave! the! optimum! seed! concentration! for! subsequent! crystallization.!Ligand\" conjugated\" Cdk2:!Crystallisation!\n(§4) was! performed! by! mixing! 1! µL! of! labelled! Cdk2! solution! (8! mg! mLR1,! 100! mM! phosphate! buffer)! with! 0.5! µL! of! reservoir! soluR\n(§5) tion! (Jeffamine! EDR2003! concentration! range! 18!R!30%! w/v,! 100! mM! HEPES,! pH! range! 7.5!–!8.5)! and! 0.5! µL! diluted! apoR\n(§6) Cdk2(WT)!microseed!stock.!For!labelled!Cdk2(WT),!crystals!appeared!within!2–3!days!and!grew!for!another!10–14!days.!\n(§7) L.,Molecular,dynamics,simulation, […]\n(§8) maps!were!calculated!using!FFT[20]!and!figures!were!prepared!using!PyMol!(Schrödinger).! […]\n(§9) Phosphorylation! of! […] Cdk2! during! gel! electrophoresis! and! the! reaction! was! monitored! by! […]"}, "[3]": {"target": "Cdk2(WT) (Homo sapiens, UniProt P24941)", "assay": "qIT thiol consumption assay with Cdk2(WT) (Cys177)", "assay_type": "binding", "set-up": "made in house; host or cells: E. coli Tuner(DE3)"}, "[4]": {"target": "T2, Cdk1 (Homo sapiens, UniProt P06493)", "T2 construct": "endogenous in cells; host or cells: HeLa", "T2 sequence (P06493 whole entry)": "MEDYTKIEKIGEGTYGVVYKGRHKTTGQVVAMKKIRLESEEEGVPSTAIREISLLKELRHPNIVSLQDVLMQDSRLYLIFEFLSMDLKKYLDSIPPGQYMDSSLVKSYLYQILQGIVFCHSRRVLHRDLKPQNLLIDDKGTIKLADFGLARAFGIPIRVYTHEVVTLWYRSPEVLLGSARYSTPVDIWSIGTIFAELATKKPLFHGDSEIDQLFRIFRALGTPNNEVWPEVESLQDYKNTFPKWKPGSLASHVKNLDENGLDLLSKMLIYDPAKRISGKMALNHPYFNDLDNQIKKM", "assay": "In-cell target engagement: CuAAC biotin tagging, Neutravidin pulldown, anti-Cdk1 western blot", "assay_type": "cell-based", "settings": "HeLa cells, 6 hours treatment", "protocol": "as §1, §2, §3, §4, §5, §6, §7, §8, §9"}},
  "data": [
    {"compound": "C#CCNC(=O)N1CCN(C(=O)C=C)c2ccccc21", "note": "[Acrylamide 3]", "values": [
      {"measurement": "k GSH (pseudo-first-order rate constant)", "setting": "[1]", "result": 0.033, "unit": "h⁻¹"},
      {"measurement": "enrichment of Cdk2 after pull-down (western blot)", "setting": "[2]", "result": "concentration‐dependent enrichment"},
      {"measurement": "k Cdk2(WT) (pseudo-first-order rate constant)", "setting": "[3]; compound 0.5 mM, Cdk2(WT) 5 μM, TCEP-agarose 2 % w/v", "result": 0.185, "unit": "h⁻¹"},
      {"measurement": "REF Cdk2(WT) (rate enhancement factor = k protein/k GSH)", "setting": "[3]; k Cdk2(WT)/k GSH", "result": 5.6},
      {"measurement": "isolation of Cdk1 after pull-down (western blot)", "setting": "[4]", "result": "not isolated"}
    ]}
  ]
}
